Reference: ChEMBL document CHEMBL1201862, “PubChem BioAssay data set” (2004)
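96-well plates; 48 h exposure; 5 concentrations. Endpoints by linear interpolation between flanking doses. Not reached: highest tested concentration assigned. The concentration for 50% growth inhibition is given as GI50.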 Active and inactive are the calls of the source. Rule as the data show it: active = GI50 up to about 1.1 µM and inactive = higher. Positions of bridges follow the written chain, without caps; N, C: chain ends. Non-standard residues stand in square brackets, D forms with d. Residues, ends and D or L forms follow the SMILES beside them. Aib = CC(C)(N)C(=O)O; βAla = NCCC(=O)O

Tests used:
Experiment in all cases: NCI tumour cell line growth inhibition, 48 h
SR = test system: SR
HCT-15 = test system: HCT-15
CCRF-CEM = test system: CCRF-CEM
HCC 2998 = test system: HCC 2998
HCT-116 = test system: HCT-116
A498 = test system: A498
MOLT-4 = test system: MOLT-4
HOP-92 = test system: HOP-92
SK-OV-3 = test system: SK-OV-3
MDA-MB-435 = test system: MDA-MB-435
PC-3 = test system: PC-3
A549 = test system: A549
MCF7 = test system: MCF7
SF-539 = test system: SF-539
SK-MEL-28 = test system: SK-MEL-28
LOX IMVI = test system: LOX IMVI
NCI/ADR-RES = test system: NCI/ADR-RES
OVCAR-8 = test system: OVCAR-8
OVCAR-5 = test system: OVCAR-5
DU-145 = test system: DU-145

| Compound | GI50 (SR) | GI50 (HCT-15) [µM] | GI50 (CCRF-CEM) | GI50 (HCC 2998) | GI50 (HCT-116) | GI50 (A498) | GI50 (MOLT-4) | GI50 (HOP-92) | GI50 (SK-OV-3) | GI50 (MDA-MB-435) | GI50 (PC-3) | GI50 (A549) | GI50 (MCF7) | GI50 (SF-539) | GI50 (SK-MEL-28) | GI50 (LOX IMVI) | GI50 (NCI/ADR-RES) | GI50 (OVCAR-8) | GI50 (OVCAR-5) | GI50 (DU-145) |
| --- | --- | --- | --- | --- | --- | --- | --- | --- | --- | --- | --- | --- | --- | --- | --- | --- | --- | --- | --- | --- |
| O=C(NCCCNCCNC(=O)c1cc(-c2ccccc2)nc2ccccc12)c1cc(-c2ccccc2)nc2ccccc12 | 2.75 µM (inactive) | 1.52 | 0.783 µM (active) | 1.7 µM (inactive) | 1.68 µM (inactive) | 2.29 µM (inactive) | 2.09 µM (inactive) | 2.12 µM (inactive) | 3.27 µM (inactive) | 1.72 µM (inactive) | 1.68 µM (inactive) | 1.73 µM (inactive) | 1.68 µM (inactive) | 1.82 µM (inactive) | 1.82 µM (inactive) | 1.58 µM (inactive) | 2.05 µM (inactive) | 1.77 µM (inactive) | – | – |
| CCCc1cc(COC)c(C#N)c(O)n1 | – | > 100 | > 100 µM (inactive) | > 100 µM (inactive) | > 100 µM (inactive) | > 100 µM (inactive) | > 100 µM (inactive) | – | > 100 µM (inactive) | > 100 µM (inactive) | > 100 µM (inactive) | > 100 µM (inactive) | > 100 µM (inactive) | 65 µM (inactive) | > 100 µM (inactive) | > 100 µM (inactive) | > 100 µM (inactive) | > 100 µM (inactive) | > 100 µM (inactive) | > 100 µM (inactive) |
| CC1(C)NC(=O)C(NC(=O)C(N)CC(=O)O)CCCCNC(=O)CCNC1=O (stereo unspecified) (H-DK[Aib][βAla]; lactam 2-C; configuration not given here) | – | > 100 | > 100 µM (inactive) | – | > 100 µM (inactive) | > 100 µM (inactive) | > 100 µM (inactive) | > 100 µM (inactive) | > 100 µM (inactive) | > 100 µM (inactive) | > 100 µM (inactive) | > 100 µM (inactive) | > 100 µM (inactive) | > 100 µM (inactive) | > 100 µM (inactive) | > 100 µM (inactive) | > 100 µM (inactive) | > 100 µM (inactive) | > 100 µM (inactive) | > 100 µM (inactive) |
| CC(C)NC(=O)OCCN=C1c2ccccc2C(Br)C(Br)c2ccccc21 (stereo unspecified) | – | 9.75 | 0.46 µM (active) | 22.7 µM (inactive) | 7.01 µM (inactive) | 1.62 µM (inactive) | 6.19 µM (inactive) | 5.3 µM (inactive) | 26.1 µM (inactive) | 7.96 µM (inactive) | 11.6 µM (inactive) | 24.7 µM (inactive) | 12.1 µM (inactive) | 4.02 µM (inactive) | 13.2 µM (inactive) | 2.94 µM (inactive) | 16 µM (inactive) | 8 µM (inactive) | 12 µM (inactive) | 6.98 µM (inactive) |
| CN1CN(c2ccccc2)C2(CCN(CCc3csc4ccccc34)CC2)C1=O | 11.7 µM (inactive) | 10.7 | 12.3 µM (inactive) | 7.21 µM (inactive) | 11.3 µM (inactive) | – | 10.3 µM (inactive) | – | 25.9 µM (inactive) | 14.4 µM (inactive) | 12 µM (inactive) | 24.2 µM (inactive) | 13.3 µM (inactive) | 11 µM (inactive) | 15.7 µM (inactive) | 13.7 µM (inactive) | 13.8 µM (inactive) | 21.4 µM (inactive) | 11.9 µM (inactive) | 18.7 µM (inactive) |
| CCOP(=O)(Nc1ccc(-c2ccccc2)cc1)OCC | – | > 100 | – | > 100 µM (inactive) | > 100 µM (inactive) | > 100 µM (inactive) | 36.4 µM (inactive) | 24.8 µM (inactive) | > 100 µM (inactive) | 91.6 µM (inactive) | 86.5 µM (inactive) | 81.5 µM (inactive) | > 100 µM (inactive) | – | > 100 µM (inactive) | – | > 100 µM (inactive) | > 100 µM (inactive) | 77.8 µM (inactive) | > 100 µM (inactive) |
| Oc1ccc(-c2ccccc2)nn1 | > 100 µM (inactive) | > 100 | > 100 µM (inactive) | > 100 µM (inactive) | > 100 µM (inactive) | > 100 µM (inactive) | > 100 µM (inactive) | > 100 µM (inactive) | – | > 100 µM (inactive) | > 100 µM (inactive) | > 100 µM (inactive) | – | – | > 100 µM (inactive) | > 100 µM (inactive) | > 100 µM (inactive) | > 100 µM (inactive) | > 100 µM (inactive) | > 100 µM (inactive) |
| CC1C2(C)OCC(C#N)(C(=N)O2)C1(C#N)C#N (stereo unspecified) | – | 13.5 | 22.8 µM (inactive) | > 10 µM (inactive) | 18.3 µM (inactive) | 88.7 µM (inactive) | 27.3 µM (inactive) | 21.9 µM (inactive) | > 100 µM (inactive) | 28.6 µM (inactive) | 24.2 µM (inactive) | > 100 µM (inactive) | 20.7 µM (inactive) | 23.1 µM (inactive) | 24.8 µM (inactive) | 17.7 µM (inactive) | 41.2 µM (inactive) | 23.9 µM (inactive) | 29.1 µM (inactive) | 22.5 µM (inactive) |
| CCOC(=O)C1=C(C(=O)c2ccc(C)cc2)C(c2cccc([N+](=O)[O-])c2)C(C(=O)c2ccc(C)cc2)=C(C(=O)OCC)N1 | 2.93 µM (inactive) | 0.853 | 5.69 µM (inactive) | – | 6.75 µM (inactive) | – | 28.6 µM (inactive) | – | 5.92 µM (inactive) | 16 µM (inactive) | 23.2 µM (inactive) | 24.2 µM (inactive) | 16 µM (inactive) | 12.8 µM (inactive) | 17.8 µM (inactive) | 17.6 µM (inactive) | 18.2 µM (inactive) | 22.5 µM (inactive) | 17.2 µM (inactive) | 16.8 µM (inactive) |
| COC(=O)C(=O)CC(=O)c1cccc(OC)c1 | – | > 100 | > 100 µM (inactive) | > 100 µM (inactive) | > 100 µM (inactive) | > 100 µM (inactive) | > 100 µM (inactive) | – | > 100 µM (inactive) | > 100 µM (inactive) | > 100 µM (inactive) | > 100 µM (inactive) | > 100 µM (inactive) | > 100 µM (inactive) | > 100 µM (inactive) | > 100 µM (inactive) | > 100 µM (inactive) | > 100 µM (inactive) | > 100 µM (inactive) | > 100 µM (inactive) |
| CC(=O)OC1COC(n2nc(N)nc2C)C(OC(C)=O)C1OC(C)=O (stereo unspecified) | – | > 100 | > 100 µM (inactive) | > 100 µM (inactive) | > 100 µM (inactive) | > 100 µM (inactive) | > 100 µM (inactive) | > 100 µM (inactive) | > 100 µM (inactive) | > 100 µM (inactive) | > 100 µM (inactive) | > 100 µM (inactive) | > 100 µM (inactive) | – | > 100 µM (inactive) | > 100 µM (inactive) | > 100 µM (inactive) | > 100 µM (inactive) | > 100 µM (inactive) | > 100 µM (inactive) |
| C/C(=N/c1[nH]c(=O)cc2c1C(=O)CC2)N(C)C | – | > 200 | > 200 µM (inactive) | > 200 µM (inactive) | > 200 µM (inactive) | > 200 µM (inactive) | > 200 µM (inactive) | > 200 µM (inactive) | > 200 µM (inactive) | > 200 µM (inactive) | > 200 µM (inactive) | > 200 µM (inactive) | > 200 µM (inactive) | > 200 µM (inactive) | > 200 µM (inactive) | > 200 µM (inactive) | > 200 µM (inactive) | > 200 µM (inactive) | > 200 µM (inactive) | > 200 µM (inactive) |
| NC1=CN(Cc2ccccc2)C2=N/C(=C\c3ccccc3)C(=O)N12 | – | > 100 | 50 µM (inactive) | > 100 µM (inactive) | > 100 µM (inactive) | > 100 µM (inactive) | 97.3 µM (inactive) | > 100 µM (inactive) | > 100 µM (inactive) | 50.1 µM (inactive) | > 100 µM (inactive) | > 100 µM (inactive) | > 100 µM (inactive) | > 100 µM (inactive) | > 100 µM (inactive) | > 100 µM (inactive) | > 100 µM (inactive) | > 100 µM (inactive) | > 100 µM (inactive) | > 100 µM (inactive) |
| Cc1nnc(N)nc1/C=C\c1ccc(N(C)C)cc1 | 6.24 µM (inactive) | 2.99 | 10.3 µM (inactive) | 3.78 µM (inactive) | 10.8 µM (inactive) | 16.6 µM (inactive) | 17.6 µM (inactive) | – | > 29.4 µM (inactive) | 6.27 µM (inactive) | 30.7 µM (inactive) | 9.79 µM (inactive) | 3.85 µM (inactive) | – | > 45.9 µM (inactive) | 4.88 µM (inactive) | 12.4 µM (inactive) | 22.9 µM (inactive) | > 86.3 µM (inactive) | > 66.2 µM (inactive) |
| CCOC(=O)CCC(NC(=O)c1ccc(Nc2nc3ccccc3nc2C(=O)OCC)cc1)C(=O)OCC (stereo unspecified) | > 39.3 µM (inactive) | 18.1 | > 100 µM (inactive) | > 76 µM (inactive) | 2.95 µM (inactive) | 6.79 µM (inactive) | > 100 µM (inactive) | 3.91 µM (inactive) | 2.47 µM (inactive) | 3.91 µM (inactive) | 16.9 µM (inactive) | 3.78 µM (inactive) | 11.3 µM (inactive) | 2.48 µM (inactive) | 8.91 µM (inactive) | 5.58 µM (inactive) | 5.46 µM (inactive) | 2.75 µM (inactive) | > 28.6 µM (inactive) | – |
